One test concerns HEK293. Kind of test: cells. The class given is functional. Conditions: Homo sapiens, ATCC CRL1573, HEK293; ASSAY_TEST Inhibition of Cell Viability; detection method Resazurin; Fluorescence (ex560/em590); MEDIA DMEM with 10% FBS; plate type 384well; TC; CORNING #3712; time 18 hr.
Another test concerns Escherichia coli. Kind of test: microbe, parasite or virus in culture. Conditions: ATCC 25922, 18 h, ASSAY_TEST Inhibition of Bacterial Growth, detection method Absorption (OD600), MEDIA CAMHB, plate type 384well, NBS, CORNING #3640.
A further test concerns Staphylococcus aureus. Kind of test: microbe, parasite or virus in culture. Conditions: ATCC 43300, 18 h, ASSAY_TEST Inhibition of Bacterial Growth, detection method Absorption (OD600), MEDIA CAMHB, plate type 384well, NBS, CORNING #3640.
The next test concerns Candida albicans. Kind of test: microbe, parasite or virus in culture. Conditions: ATCC 90028, ASSAY_TEST Inhibition of Fungal Growth, detection method Absorption (OD530), plate type 384well, NBS, CORNING #3640.
For another test, the system named is Klebsiella pneumoniae. The experiment in a line: microbe, parasite or virus in culture. Conditions: ATCC 700603, 18 h, ASSAY_TEST Inhibition of Bacterial Growth, detection method Absorption (OD600), MEDIA CAMHB, plate type 384well, NBS, CORNING #3640.
Another test concerns Acinetobacter baumannii. The experiment in a line: microbe, parasite or virus in culture. Conditions: ATCC 19606, 18 h, ASSAY_TEST Inhibition of Bacterial Growth, detection method Absorption (OD600), MEDIA CAMHB, plate type 384well, NBS, CORNING #3640.
In another test the test system is Pseudomonas aeruginosa. The experiment in a line: microbe, parasite or virus in culture. Conditions: ATCC 27853, 18 h, ASSAY_TEST Inhibition of Bacterial Growth, detection method Absorption (OD600), MEDIA CAMHB, plate type 384well, NBS, CORNING #3640.

Each structure is given as a SMILES string. Some results are limits rather than exact numbers.

Description for Acinetobacter baumannii: Antibacterial activity against Acinetobacter baumannii ATCC 19606 (CO-ADD:GN_034); MIC in CAMBH media using NBS plates, by OD600
Description for Candida albicans: Antifungal activity against Candida albicans ATCC 90028 (CO-ADD:FG_001); MIC in YNB media using NBS plates, by OD630
Description for Cryptococcus neoformans: Antifungal activity against Cryptococcus neoformans H99 ATCC 208821 (CO-ADD:FG_002); MIC in YNB media using NBS plates, by Resazurin OD(600-570)
Description for Escherichia coli: Antibacterial activity against Escherichia coli ATCC 25922 (CO-ADD:GN_001); MIC in CAMBH media using NBS plates, by OD(600)
Description for Klebsiella pneumoniae: Antibacterial activity against Klebsiella pneumoniae MDR ATCC 70063 (CO-ADD:GN_003); MIC in CAMBH media using NBS plates, by OD(600)
Description for Pseudomonas aeruginosa: Antibacterial activity against Pseudomonas aeruginosa ATCC 27853 (CO-ADD:GN_042); MIC in CAMBH media using NBS plates, by OD(600)
Description for Staphylococcus aureus: Antibacterial activity against Staphylococcus aureus MRSA ATCC 43300 (CO-ADD:GP_020); MIC in CAMBH media, using NBS plates, by OD(600)

In the test on HEK293, `Cl.N=C(N)Nc1nc(-c2c[nH]c3ccccc23)cs1` yielded a CC50 of 9.6 µg/mL. For the same compound, the MIC in the test with Escherichia coli is more than 32 µg/mL; against Staphylococcus aureus, more than 32 µg/mL; in the test on Candida albicans, more than 32 µg/mL; against Cryptococcus neoformans it was 16 µg/mL; with Klebsiella pneumoniae, more than 32 µg/mL; against Acinetobacter baumannii it was more than 32 µg/mL. In addition, the MIC in the test with Pseudomonas aeruginosa was more than 32 µg/mL.

For `NC(N)=Nc1nc(-c2csc3ccccc23)cs1`, the half-maximal cytotoxic concentration (CC50) in the test on HEK293 is more than 32 µg/mL. Moreover, the MIC against Escherichia coli, with Staphylococcus aureus, against Candida albicans, with Cryptococcus neoformans, with Klebsiella pneumoniae and against Acinetobacter baumannii was more than 32 µg/mL in each case. The MIC in the test with Pseudomonas aeruginosa is more than 32 µg/mL.

The values are drawn from ChEMBL document CHEMBL4513153, “CO-ADD screening of University of Northwestern St. Paul (MN, USA) compounds”.
